From patent US20250302780A1, “METHOD OF TREATING PREMATURE EJACULATION IN HUMAN MALES WITHOUT SYMPTOMS OF BENIGN PROSTATIC HYPERTROPHY (BPH) USING TAMSULOSIN 0.2MG QOD WHICH DELAYS EJACULATION BY REDUCING THE RATE OF SECRETION AND TRANSPORT BY SEMINAL VESICLES AND PROSTATE IN THE GENITOURINARY TRACT” (Wustashire, priority 2024, published 2025)
Like-named read-outs stand apart in the source and are kept apart here.

Key:
[1] = Focused analysis of published BPH/LUTS studies: risk of abnormal ejaculation (anejaculation or significantly reduced ejaculate) with tamsulosin; assay type: in vivo, human
Experimental: To objectively determine an effective tamsulosin dose for treating premature ejaculation in patients without benign prostatic hypertrophy (BPH), a focused analysis of relevant well designed research studies that examined the abnormal ejaculation side effects of tamsulosin in BPH treatment based on combined data derived from multiple sources was conducted (www.accessdata.fda.gov, n.d.; Soliman et al, 2023; Shim et al., 2016). […] These studies focused on evaluating tamsulosin treatment outcomes in patients with BPH and lower urinary tract symptoms (LUTS). The analysis leveraged the identical mechanism of action of tamsulosin in both BPH/LUTS and premature ejaculation with respect to non-vascular smooth muscle relaxation in the genitourinary tract.
The graph plots administered tamsulosin quantity in mg on the x-axis against the calculated percentage risks of these dysfunctional sequelae on the y-axis.
Further, the FIG. 4 illustrates test data on calculated risk of abnormal or adverse ejaculatory side effects at different dosages. […] Quantitative data points are shown for tamsulosin at doses of 0.8 mg, 0.4 mg, and 0.2 mg taken either on a daily (QD) basis or every other day (QOD).

[2] = cited from earlier work
[3] = 0.2 mg QD, after 8 weeks (Zhang et al.); cited from earlier work
[4] = cited from earlier work; remark: listed apart in the source

## CCOc1ccccc1OCCN[C@H](C)Cc1ccc(OC)c(S(N)(=O)=O)c1 [tamsulosin]
[1]; 0.4 mg QOD (every other day), calculated from 5-fold reduction
  risk of ejaculatory sequelae: 1.68%
[1]; dose reduction 0.4 mg QD to 0.2 mg QD
  drop in abnormal ejaculatory risk likelihood: ~2.15 fold
[1]; halving 0.8 mg QD to 0.4 mg QD
  reduction of projected abnormal ejaculatory risk: 53.6%
[2]; 0.4 mg QD (daily)
  risk of abnormal or adverse ejaculatory side effects: 8.4%
[2]; 0.4 mg converted from QD to QOD (Soliman et al.)
  abnormal ejaculatory risk reduction: 5 fold
[2]; 0.8 mg QD (daily)
  risk of abnormal or adverse ejaculatory side effects: 18.1%
[3]
  increase of intravaginal ejaculation latency time (IELT): 1.14 min
  risk of adverse events: 2.6%
[4]; 0.2 mg QD (Shim et al.)
  efficacy for mild to moderate BPH symptoms: effective
[4]; QD vs alternating day (Soliman et al.)
  therapeutic efficacy of QD dosing versus alternating day dosing: clinically similar
